# Source: patent US10603322B2, “Therapeutic targeting of casein kinase 1δ in breast cancer” (The Scripps Research Institute, priority 2015, dated 2020)
# Key:
# MDA-MB-231 TNBC cells = assay: Cell proliferation / growth assay; type: cell-based, human; conditions: forced expression of β-catenin-S33Y or β-catenin N90; 72 hr
# MCF7 breast cancer cells = assay: Clonogenic growth assay; type: cell-based, human
# Experimental: Cell proliferation was measured 72 hr after SR-3029 or vehicle treatment using Cell-Titer Glo (Promega) according to the manufacturers' instructions. EC50 values were determined using non-linear regression and a four-parameter algorithm (GraphPad Prism5). For clonogenic assays, cells were plated in 6-well dishes in triplicate at a density of 500-1000 cells per well. After overnight incubation, SR-3029 or vehicle (DMSO) was added to media for 72 hr and cells were allowed to grow out for 7-10 days, during which media was changed every 2-3 days in the absence of compound. Colonies were fixed in 4% paraformaldehyde/PBS and stained with 0.5% methylene blue in 50% ethanol for 1 hr at room temperature and de-stained with water. Colonies with greater than 50 cells were counted using a low magnification light microscope.
# [1] = test system: Wnt-3a-directed induction of the TCF reporter; assay: Wnt-3a-induced TCF-dependent luciferase reporter assay in HEK293T cells; type: cell-based, human
# Experimental: MDA-MB-231 or HEK293 cells stably expressing the TCF luciferase reporter 7TFP (39) were transfected with β-catenin-S33Y or empty vector (pcDNA). After 18 hr cells were seeded onto a 96-well plate at a density of 6000 cells/well. After 24 hr cells were treated with SR-3029 or vehicle and incubated for 6 hr prior to addition of 1 μg/ml recombinant human Wnt3a (R&D Systems) or PBS. After 3 hr, reporter assays were performed using BriteLite Plus (Perkin Elmer), which was added in equal volume directly to the media and luminescence read using a Spectramax plate reader (Molecular Devices).
# kinome = conditions: cited from earlier work
# FLT3 = FLT3 (Homo sapiens, UniProt P36888); conditions: cited from earlier work
# FLT3, sequence (P36888 564-993 limits assumed): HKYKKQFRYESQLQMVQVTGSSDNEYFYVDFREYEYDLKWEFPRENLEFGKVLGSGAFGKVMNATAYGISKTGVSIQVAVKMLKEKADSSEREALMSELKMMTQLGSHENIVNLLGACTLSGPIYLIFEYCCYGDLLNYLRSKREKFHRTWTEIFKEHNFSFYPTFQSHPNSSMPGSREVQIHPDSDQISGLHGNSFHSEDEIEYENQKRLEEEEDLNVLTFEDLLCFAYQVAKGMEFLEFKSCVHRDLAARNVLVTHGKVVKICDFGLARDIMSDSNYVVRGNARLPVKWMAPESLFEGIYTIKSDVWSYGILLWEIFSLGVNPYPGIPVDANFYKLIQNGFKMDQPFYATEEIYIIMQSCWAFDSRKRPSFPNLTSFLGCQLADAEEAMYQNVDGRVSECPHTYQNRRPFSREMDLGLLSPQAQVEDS
smiles,measurement,setting,value
Fc1cccc(-n2cnc3c(NCc4nc5ccc(F)c(F)c5[nH]4)nc(N4CCOCC4)nc32)c1 [SR-3029],growth inhibitory and apoptotic effects with constitutively active β-catenin,MDA-MB-231 TNBC cells,sufficient to rescue the growth inhibitory and apoptotic effects
same,colony forming capacity,MCF7 breast cancer cells,no effect
same,sensitivity of MCF7 cells with forced overexpression of CK1δ,"MCF7 breast cancer cells; short-term and long-term growth assays, CK1δ vs GFP",sensitizes them to SR-3029
same,Wnt-3a-directed induction of the TCF reporter,"[1]; 1 μg/ml Wnt-3a, 3 hr",abolished
same,TCF reporter activity with constitutively active β-catenin (S33Y),[1]; forced expression of β-catenin S33Y,refractory
same,off-target kinase affinity,"kinome; CDK4, MYLK4 and FLT3, in addition to CK1δ and CK1ε",weaker affinity for only three kinases
same,fraction of the kinome inhibited,kinome,1%
same,FLT3 off-target activity,FLT3,common (and weak) off-target
